ChEMBL document CHEMBL1201862, “PubChem BioAssay data set” (2004)
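Tested at 5 concentrations; 48 h exposure; 96-well plates; endpoints linearly interpolated, else capped at highest concentration. GI50 = concentration required for 50% inhibition of growth.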 Calls of active or inactive are those of the source. Cut-off read from the data, not from the text of the source: active = GI50 up to about 1.1 µM and inactive = higher.

Key:
Assay in all cases: DTP human tumour cell line panel, 48 h
786-0 = tested on: 786-0
A498 = tested on: A498
A549 = tested on: A549
ACHN = tested on: ACHN
CAKI-1 = tested on: CAKI-1
CCRF-CEM = tested on: CCRF-CEM
COLO 205 = tested on: COLO 205
DLD-1 = tested on: DLD-1
DMS-114 = tested on: DMS-114
DMS-273 = tested on: DMS-273
EKVX = tested on: EKVX
HCC 2998 = tested on: HCC 2998
HCT-116 = tested on: HCT-116
HL-60 = tested on: HL-60
HOP-18 = tested on: HOP-18
HOP-62 = tested on: HOP-62
HOP-92 = tested on: HOP-92
HT-29 = tested on: HT-29
IGROV-1 = tested on: IGROV-1
K562 = tested on: K562
KM-20L2 = tested on: KM-20L2
KM12 = tested on: KM12
LOX IMVI = tested on: LOX IMVI
LXFL 529 = tested on: LXFL 529
M14 = tested on: M14
M19-MEL = tested on: M19-MEL
MOLT-4 = tested on: MOLT-4
Malme-3M = tested on: Malme-3M
NCI-H226 = tested on: NCI-H226
NCI-H23 = tested on: NCI-H23
NCI-H460 = tested on: NCI-H460
NCI-H522 = tested on: NCI-H522
OVCAR-3 = tested on: OVCAR-3
OVCAR-4 = tested on: OVCAR-4
OVCAR-5 = tested on: OVCAR-5
OVCAR-8 = tested on: OVCAR-8
RPMI-8226 = tested on: RPMI-8226
RXF 393 = tested on: RXF 393
SF-268 = tested on: SF-268
SF-295 = tested on: SF-295
SF-539 = tested on: SF-539
SK-MEL-28 = tested on: SK-MEL-28
SK-MEL-2 = tested on: SK-MEL-2
SK-MEL-5 = tested on: SK-MEL-5
SK-OV-3 = tested on: SK-OV-3
SN12C = tested on: SN12C
SNB-19 = tested on: SNB-19
SNB-75 = tested on: SNB-75
SR = tested on: SR
SW-620 = tested on: SW-620
TK-10 = tested on: TK-10
U-251 = tested on: U-251
UACC-257 = tested on: UACC-257
UACC-62 = tested on: UACC-62
UO-31 = tested on: UO-31

Measured: GI50

COc1cc(/C=C2\NC(=O)C(Cc3cc(OC)c(OC)c(C)c3OC)N(C(C)=O)C2=O)c(OC)c(C)c1OC (stereo not given)
inactive: 786-0 > 100 µM | A498 > 100 µM | A549 > 100 µM | ACHN > 100 µM | CAKI-1 54.8 µM | CCRF-CEM 45.2 µM | COLO 205 54.7 µM | DLD-1 > 100 µM | DMS-114 60.5 µM | DMS-273 > 100 µM | EKVX 43.7 µM | HCC 2998 > 100 µM | HCT-116 > 100 µM | HL-60 23 µM | HOP-18 28.6 µM | HOP-62 > 100 µM | HOP-92 29.3 µM | HT-29 > 100 µM | IGROV-1 > 100 µM | K562 61.2 µM | KM-20L2 > 100 µM | KM12 94.6 µM | LOX IMVI > 100 µM | LXFL 529 72.8 µM | M14 > 100 µM | M19-MEL > 100 µM | MOLT-4 33.3 µM | Malme-3M 83.6 µM | NCI-H226 59.2 µM | NCI-H23 > 100 µM | NCI-H460 43.4 µM | NCI-H522 21.8 µM | OVCAR-3 > 100 µM | OVCAR-4 > 100 µM | OVCAR-5 > 100 µM | OVCAR-8 72.8 µM | RPMI-8226 45.6 µM | RXF 393 95.5 µM | SF-268 > 100 µM | SF-295 > 100 µM | SF-539 > 100 µM | SK-MEL-28 > 100 µM | SK-MEL-2 96.4 µM | SK-MEL-5 42.9 µM | SK-OV-3 > 100 µM | SN12C > 100 µM | SNB-19 > 100 µM | SNB-75 > 100 µM | SR > 100 µM | SW-620 > 100 µM | TK-10 > 100 µM | U-251 > 100 µM | UACC-257 > 100 µM | UACC-62 > 100 µM | UO-31 85.1 µM
